From patent publication US11672792B2, “Topical formulations comprising montelukast and combinations with mussel adhesive proteins” (ENLITISA (SHANGHAI) PHARMACEUTICAL CO., LTD, priority 2017, dated 2023)
Where two headings read alike, the source gives them in different places. One block for each molecule: values may come before it.

Tests used:
[1] = system: carrageenan-induced acute inflammation in subcutaneous air pouch; experiment: Air Pouch Model II (Example 2); type: in vivo, mice; parameters: Fibroplastic proliferation score / Inflammation score / Activity score / Edema Score / Sum (of histology scores): scale not given here; settings: Dopamine 2 mg, MAP 250 μg, Mon 100 μg
Experimental: In Table 6, “Dex” is an abbreviation for dexamethasone and “Dopamine” is a 4 mg/mL aqueous solution of dopamine hydrochloride (Shanghai Aladdin Bio-Chem Technology Co., Ltd., Shanghai, China).
The histological specimens were analysed and an inflammation score, an activity score and a fibroplastic proliferation score were estimated as in Example 1 above and are tabulated in Table 9 below.

in vivo = settings: Sprague Dawley, rat, skin (unscalded intact, full thickness), topical, 1 g montelukast cream
[2] = system: full thickness skin wounds in diabetic mice; experiment: Diabetic Wound Model (Example 7); type: in vivo, db/db mice (C57BL/KsJ-db/db); settings: Day 6, Mon 100 μg/each
Experimental: A similar experiment with essentially the same protocol to that described in Example 6 above was carried out on 8 to 12 week-old male db/db mice (C57BL/KsJ-db/db, with a body weight of 35-45 g/mouse; supplied by Changzhou Cvens Experimental Animal Co. Ltd.).
An EMS skin biopsy punch with a […] diameter was used to make wounds.
Different drugs were administrated topically at 20 μL/wound, once daily from Day 0 to Day 18. The model group was given same amount of normal saline.
Samples were taken on Day 6, Day 12 and Day 18 post-wound inflictions.
Histological specimens were analyzed and skin regeneration, fibroblast proliferation, collagen regeneration scores (Masson score) and inflammation scores were estimated as follows.
The HE and Masson stained slices were observed under an optical microscope and were scored (1, 2 or 3 points) according to the following criteria. […]
Fibroblast proliferation was scored as the following criteria:
Inflammation was scored as the following criteria:
Collagen deposition score criterion for the Masson stained sample were as follows. […] No clear blue staining was given 0 points; blue fiber appearing in a scattered pattern was scored as 1 points; if more blue fiber appeared, this was scored as 2 points, and a diffuse blue colour was given 3 points.

[3] = system: carrageenan-induced acute inflammation in subcutaneous air pouch; experiment: Air Pouch Model: Topical Administration Versus Oral Administration (Example 4); settings: 200 μg/mouse, Mon-O intragastric; for Exudate volume / Pouch Wall Weight: others injected into pouch; for Activity score / Edema Score / IFN-γ in exudate (ELISA) / IL-6 in exudate (ELISA) / Inflammation score / Leukocyte count in exudate / Sum (of histology scores) / TNF-α in exudate (ELISA): others into pouch
[4] = pH and stability of montelukast formulations; settings: PEG-based creams or ointments; not prone to oxidation
[5] = for Montelukast amount in skin sample: unscalded intact skin
[6] = system: carrageenan-induced acute inflammation in subcutaneous air pouch; experiment: Air Pouch Model: Combination of Montelukast (Example 5); type: in vivo, mice; settings: MAP 1.5 mg, Mon 200 μg; for Activity score / Fibroblast proliferation score / Inflammation score / Leukocyte count in exudate / Lymphocyte count in exudate / Monocyte count in exudate / Neutrophil count in exudate / Sum (of histology scores) / Edema Score / IFN-γ in exudate (ELISA) / IL-6 in exudate (ELISA) / IL-10 in exudate (ELISA) / TNF-α in exudate (ELISA): dexamethasone 200 μg; for Exudate volume / Pouch Wall Weight: doses/mouse: dexamethasone 200 μg

concentration at 0 h (in vivo): 0 ng/g | concentration at 1 h (in vivo): 36700 ng/g | concentration at 2 h (in vivo): 68000 ng/g | concentration at 3 h (in vivo): 13400 ng/g | concentration at 6 h (in vivo): 15600 ng/g | concentration at 8 h (in vivo): 55300 ng/g | stability of formulation (in words) [4]: surprisingly stable | Montelukast amount in skin sample ([5]; 0 h, 1 g montelukast cream topically): 0 g | Montelukast amount in skin sample ([5]; 1 h): 2.53 g | Montelukast amount in skin sample ([5]; 2 h): 5.44 g | Montelukast amount in skin sample ([5]; 3 h): 0.89 g | Montelukast amount in skin sample ([5]; 6 h): 0.90 g | Montelukast amount in skin sample ([5]; 8 h): 3.54 g | time of montelukast peak in skin ([5]; scalded skin): 2 h
Structure (SMILES): CC(C)(O)c1ccccc1CC[C@@H](SCC1(CC(=O)O)CC1)c1cccc(/C=C/c2ccc3ccc(Cl)cc3n2)c1 [Mon, Montelukast sodium]
Fibroplastic proliferation score ([1]; Dex 400 μg): 0.00 | increase of VEGF production in the wounded tissue in comparison with model group [2]: about 74% | VEGF content, Mean ([2]; wound tissue, rhEGF 100 IU/each, once daily topically): 5.47 pg/g | Exudate volume ([3]; listed as Mon-O): 3.69 ± 0.14 mL | Pouch Wall Weight ([3]; listed as Mon-O): 0.68 ± 0.08 g | Exudate volume ([3]; listed as Mon-T): 3.54 ± 0.09 mL | Pouch Wall Weight ([3]; listed as Mon-T): 0.65 ± 0.06 g | Activity score ([3]; listed as Mon-O): 1.67 | Edema Score ([3]; listed as Mon-O): 2.17 | IFN-γ in exudate (ELISA) ([3]; listed as Mon-O): 557.95 ± 231.86 | IL-6 in exudate (ELISA) ([3]; listed as Mon-O): 500.25 ± 292.84 | Inflammation score ([3]; listed as Mon-O): 2.33 | Leukocyte count in exudate ([3]; listed as Mon-O): 2.66e+06 mL⁻¹ | Sum (of histology scores) ([3]; listed as Mon-O): 6.17 | TNF-α in exudate (ELISA) ([3]; listed as Mon-O): 146.3 ± 70.74 | Activity score ([3]; listed as Mon-T): 1.00 | IFN-γ in exudate (ELISA) ([3]; listed as Mon-T): 568.19 ± 316.70 | IL-6 in exudate (ELISA) ([3]; listed as Mon-T): 312.05 ± 189.23 | Inflammation score ([3]; listed as Mon-T): 2.00 | Leukocyte count in exudate ([3]; listed as Mon-T): 2.19e+06 mL⁻¹ | TNF-α in exudate (ELISA) ([3]; listed as Mon-T): 80.37 ± 61.72 | Activity score [6]: 1.00 | Fibroblast proliferation score [6]: 0.83 | Inflammation score [6]: 2.17 | Leukocyte count in exudate [6]: 3.82e+06 mL⁻¹ | Lymphocyte count in exudate [6]: 3.22e+06 mL⁻¹ | Monocyte count in exudate [6]: 170000 mL⁻¹ | Neutrophil count in exudate [6]: 290000 mL⁻¹ | Sum (of histology scores) [6]: 5.50 | Edema Score ([6]; listed as MON-O): 1.00 | Fibroblast proliferation score ([6]; listed as MON-O): 0.33 | Leukocyte count in exudate ([6]; listed as MON-O): 2.38e+06 mL⁻¹ | Lymphocyte count in exudate ([6]; listed as MON-O): 1.98e+06 mL⁻¹ | Monocyte count in exudate ([6]; listed as MON-O): 70000 mL⁻¹ | Neutrophil count in exudate ([6]; listed as MON-O): 210000 mL⁻¹ | Sum (of histology scores) ([6]; listed as MON-O): 4.17 | IFN-γ in exudate (ELISA) ([6]; listed as Mon (oral)): 2495 ± 711 | IL-6 in exudate (ELISA) ([6]; listed as Mon (oral)): 8453 ± 9758 | IL-10 in exudate (ELISA) ([6]; listed as Mon (oral)): 52.59 ± 7.22 | TNF-α in exudate (ELISA) ([6]; listed as Mon (oral)): 39.41 ± 17.62 | IFN-γ in exudate (ELISA) ([6]; listed as Mon (topical)): 1690 ± 725 | IL-6 in exudate (ELISA) ([6]; listed as Mon (topical)): 2528 ± 1538 | IL-10 in exudate (ELISA) ([6]; listed as Mon (topical)): 68.18 ± 15.81 | TNF-α in exudate (ELISA) ([6]; listed as Mon (topical)): 90.73 ± 109.02 | Exudate volume [6]: 3.68 ± 0.15 mL | Pouch Wall Weight [6]: 0.66 ± 0.13 g | Exudate volume ([6]; listed as MON-O): 3.58 ± 0.15 mL | Pouch Wall Weight ([6]; listed as MON-O): 0.67 ± 0.10 g

Structure (SMILES): C[C@@H]1C[C@H]2[C@@H]3CCC4=CC(=O)C=C[C@]4(C)[C@@]3(F)[C@@H](O)C[C@]2(C)[C@@]1(O)C(=O)CO [Dexamethasone, dexamethasone]
Activity score ([1]; Dex 400 μg): 0.33 | Edema Score ([1]; Dex 400 μg): 0.83 | Fibroplastic proliferation score ([1]; Dex 400 μg): 0.00 | IFN-γ in exudate (ELISA) ([1]; Dex 400 μg): 238.91 ± 272.27 | IL-6 in exudate (ELISA) ([1]; Dex 400 μg): 3697.30 ± 5112.52 | Inflammation score ([1]; Dex 400 μg): 0.83 | Leukocyte count in exudate ([1]; Dex 400 μg): 880000 mL⁻¹ | Lymphocyte count in exudate ([1]; Dex 400 μg): 30000 mL⁻¹ | Monocyte count in exudate ([1]; Dex 400 μg): 670000 mL⁻¹ | Neutrophil count in exudate ([1]; Dex 400 μg): 130000 mL⁻¹ | Sum (of histology scores) ([1]; Dex 400 μg): 2.00 | Exudate volume ([1]; doses/mouse: Dex 400 μg): 2.87 ± 0.06 mL | Pouch Wall Weight ([1]; doses/mouse: Dex 400 μg): 0.45 ± 0.01 g | Exudate volume [3]: 3.3 ± 0.15 mL | Pouch Wall Weight [3]: 0.63 ± 0.09 g | Activity score [3]: 0.67 | Edema Score [3]: 1.67 | IFN-γ in exudate (ELISA) [3]: 388.83 ± 130.02 | IL-6 in exudate (ELISA) [3]: 428.05 ± 267.27 | Inflammation score [3]: 1.83 | Leukocyte count in exudate [3]: 3.49e+06 mL⁻¹ | Sum (of histology scores) [3]: 4.17 | TNF-α in exudate (ELISA) [3]: 65.08 ± 7.70 | Activity score [6]: 0.83 | Edema Score [6]: 1.67 | Fibroblast proliferation score [6]: 0.00 | IFN-γ in exudate (ELISA) [6]: 2879 ± 1267 | IL-6 in exudate (ELISA) [6]: 3649 ± 1764 | IL-10 in exudate (ELISA) [6]: 52.33 ± 11.60 | Inflammation score [6]: 1.50 | Leukocyte count in exudate [6]: 2.48e+06 mL⁻¹ | Lymphocyte count in exudate [6]: 2.08e+06 mL⁻¹ | Monocyte count in exudate [6]: 50000 mL⁻¹ | Neutrophil count in exudate [6]: 220000 mL⁻¹ | Sum (of histology scores) [6]: 4.00 | TNF-α in exudate (ELISA) [6]: 71.31 ± 111.19 | Exudate volume [6]: 3.60 ± 0.14 mL | Pouch Wall Weight [6]: 0.72 ± 0.09 g
